The test system of assay [1] is A549. Description: Induction of apoptosis in human Trametinib-resistant A549 cells with high-OXPHOS harboring KRAS G12S mutant assessed as early apoptotic cells at 500 nM incubated for 72 hrs by Annexin V-FITC/propidium iodide staining based flow cytometry analysis (reference value: 4.31%). In kind it is functional.
Assay [2] concerns NCI-H460. Description: Induction of apoptosis in human NCI-H460 cells with high-OXPHOS harboring KRAS Q61H mutant assessed as early apoptotic cells at 500 nM incubated for 72 hrs by Annexin V-FITC/propidium iodide staining based flow cytometry analysis (reference value: 1.95%). In kind it is functional.
Assay [3] has as its system A549. Description: Cytotoxicity against human A549 cells assessed as reduction in cell viability incubated for 72 hrs by CellTiter 96 cell proliferation assay. As to conditions: A549, 72 h. In kind it is functional, cell-based.
Assay [4] relates to A549. Description: Cytotoxicity against human Trametinib-resistant A549 cells assessed as reduction in cell viability incubated for 72 hrs by CellTiter 96 cell proliferation assay. It counts as functional, cell-based. The settings on record: A549, 72 h.
The subject of assay [5] is NCI-H460. Kind of assay: Induction of apoptosis in human NCI-H460 cells with high-OXPHOS harboring KRAS Q61H mutant assessed as late apoptotic cells at 500 nM incubated for 72 hrs by Annexin V-FITC/propidium iodide staining based flow cytometry analysis (reference value: 5.68%). It counts as functional.
For assay [6], the system named is A549. Description: Induction of apoptosis in human Trametinib-resistant A549 cells with high-OXPHOS harboring KRAS G12S mutant assessed as late apoptotic cells at 500 nM incubated for 72 hrs by Annexin V-FITC/propidium iodide staining based flow cytometry analysis (reference value: 4.27%). In kind it is functional.

This note sets out measurements from ChEMBL document CHEMBL5380875, “Discovery of a Potent and Oral Available Complex I OXPHOS Inhibitor That Abrogates Tumor Growth and Circumvents MEKi Resistance” (J Med Chem, 2023).

For the compound `CC(=O)Nc1cccc(-n2c(=O)n(C3CC3)c(=O)c3c(Nc4ccc(I)cc4F)n(C)c(=O)c(C)c32)c1` [TRAMETINIB], the Activity in assay [1] worked out at 6.94%; in assay [2], 2.51%; in assay [5] it was 8.3%; in assay [6] it was 15.6%. Also, the IC50 in assay [3] came out at 0.296 µM; in assay [4] it was 38.1 µM.
